For 42 molecules, Emax and EC50 results are on record in patent publication US10183021B2, “sGC stimulators” (Ironwood Pharmaceuticals, Inc., priority 2013, dated 2019).

The experiment deals with soluble guanylate cyclase (sGC) (Homo sapiens (Human), UniProt Q02108+Q02153). In words: sGC-HEK-cGMP assay with SNP incubation, LC/MS detection (Example 2A). It is filed as cell-based. Particulars: HEK293 cells, 10 μM SNP, LC/MS detection; for Emax: 100% = BAY 41-2272 at 10 μM, read-out: HEK assay Emax - unconstrained (%). As for the experimental part: Human embryonic kidney cells (HEK293), endogenously expressing soluble guanylate cyclase (sGC), were used to evaluate the activity of test compounds. Compounds stimulating the sGC receptor should cause an increase in the intracellular concentration of cGMP. HEK 293 cells were seeded in Dulbecco's Modification of Eagle's Medium supplemented with fetal bovine serum (10% final) and L-glutamine (2 mM final) in a 200 L volume at a density of 1×10^5 cells/well in a poly-D-lysine coated 96 well flat bottom plate and grown overnight at 37° C. Medium was aspirated and cells were washed with 1× Hank's Buffered Saline Salt Solution (200 μL). Cells were then incubated for 15 minutes at 37° C. with 200 μL of a 0.5 mM 3-isobutyl-1-methylxanthine (IBMX) solution. Test article and sodium nitroprusside solutions (x μM concentration for test article solution and 10 μM concentration for SNP solution; wherein x is one of the following concentrations: 30 μM, 10 μM, 3 μM, 1 μM, 0.3 μM, 0.1 μM, 0.03 μM, 0.01 μM, 0.003 μM, 0.001 μM, 0.0003 μM or 0.0001 μM) were then added to the assay mixture (2 μL each) and the resulting mixture incubated at 37° C. for 10 minutes. After the 10 minute incubation, the assay mixture was aspirated and 0.1M HCl (200 μL) was added to the cells. The plate was incubated at 4° C. for 30 minutes in the 0.1M HCl to stop the reaction and lyse the cells. The plates were then centrifuged at 1,200 g for 5 minutes at room temperature. Supernatants were collected and transferred to a new flat bottom 96 well plate for analysis by HPLC-MS. Vehicle controls were carried out using DMSO (1%) solutions. A known sGC stimulator, BAY 41-2272, was used as the positive control. Samples were diluted with an equal volume of 1 M Ammonium Acetate (pH 7) to neutralize samples for better chromatography. A 2× cGMP standard solution was prepared in 0.1 M HCl and then diluted with an equal volume of 1 M Ammonium Acetate, with the following final concentrations in nM: 1024, 512, 256, 128, 64, 32, 16, 8, 4, 2, 1. cGMP concentrations in the test plates were determined from each sample using the LC/MS conditions shown in Table 2 below and the calculated cGMP standard curve. EC50 values were calculated from concentration-response curves generated with GraphPad Prism Software. Data were normalized to a high control using the following equation: 100*(Sample−Low Control)/(High Control−Low Control), where the low control is the average of 6 samples treated with 1% DMSO, and the high control is the average of 8-12 samples treated with 10 uM BAY 41-2272. Data were fit using a non-linear regression, sigmoidal dose response, 3 parameter fits.

Where [1] appears, read: top of curve not fitted to 100%, read-out: HEK assay EC50 - unconstrained.

Like-named read-outs stand apart in the source and are kept apart here. Some results are limits rather than exact numbers.

soluble guanylate cyclase (sGC), sequence (Q02153 whole entry): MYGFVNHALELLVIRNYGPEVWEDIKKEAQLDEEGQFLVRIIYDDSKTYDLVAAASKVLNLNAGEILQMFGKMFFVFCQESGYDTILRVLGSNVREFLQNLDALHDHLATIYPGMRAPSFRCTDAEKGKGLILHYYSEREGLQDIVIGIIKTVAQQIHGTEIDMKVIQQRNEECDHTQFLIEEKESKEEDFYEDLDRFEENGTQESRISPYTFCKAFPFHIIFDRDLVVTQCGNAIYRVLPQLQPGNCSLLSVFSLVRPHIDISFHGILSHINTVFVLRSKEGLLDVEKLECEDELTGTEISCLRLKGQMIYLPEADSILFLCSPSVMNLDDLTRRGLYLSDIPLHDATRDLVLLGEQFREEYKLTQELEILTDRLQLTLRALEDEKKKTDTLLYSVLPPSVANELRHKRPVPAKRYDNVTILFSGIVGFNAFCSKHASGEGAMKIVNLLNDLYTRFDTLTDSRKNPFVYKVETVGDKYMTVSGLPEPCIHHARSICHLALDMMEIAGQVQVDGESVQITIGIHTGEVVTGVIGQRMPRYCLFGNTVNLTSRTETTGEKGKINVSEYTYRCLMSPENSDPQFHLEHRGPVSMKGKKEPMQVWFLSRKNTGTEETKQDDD
soluble guanylate cyclase (sGC), sequence (Q02108 whole entry): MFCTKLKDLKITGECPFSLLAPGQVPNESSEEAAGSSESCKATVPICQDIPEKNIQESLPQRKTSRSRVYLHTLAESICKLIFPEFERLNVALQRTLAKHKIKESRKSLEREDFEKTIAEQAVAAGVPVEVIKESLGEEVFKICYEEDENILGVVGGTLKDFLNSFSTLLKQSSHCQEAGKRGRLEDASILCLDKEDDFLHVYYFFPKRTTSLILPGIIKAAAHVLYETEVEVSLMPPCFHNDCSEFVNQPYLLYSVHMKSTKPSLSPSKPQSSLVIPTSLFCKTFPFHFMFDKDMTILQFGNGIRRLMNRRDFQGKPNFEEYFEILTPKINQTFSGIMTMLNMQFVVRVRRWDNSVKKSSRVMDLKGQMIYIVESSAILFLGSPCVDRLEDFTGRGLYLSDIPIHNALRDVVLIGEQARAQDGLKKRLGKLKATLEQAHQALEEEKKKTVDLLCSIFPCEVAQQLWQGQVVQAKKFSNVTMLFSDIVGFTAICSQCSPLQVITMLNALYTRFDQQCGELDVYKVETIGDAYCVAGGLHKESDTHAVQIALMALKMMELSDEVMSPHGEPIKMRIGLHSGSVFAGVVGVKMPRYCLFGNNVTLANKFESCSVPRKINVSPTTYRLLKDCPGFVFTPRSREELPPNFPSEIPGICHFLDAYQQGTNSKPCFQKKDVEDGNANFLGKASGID

Turning to `O=C(O)C1CCCCCN1c1nc(-c2cc(-c3ccon3)n(Cc3ccccc3F)n2)ncc1F` (centres unmarked) [Compound I-75], the Emax was in the range of 60 to 80%. Besides, the EC50 under setting [1] was in the range of 100 to 500 nM. Regarding `O=C(O)C1CCN(c2nc(-c3cc(-c4ccon4)n(Cc4ccccc4F)n3)ncc2F)C1` (centres unmarked) [Compound I-76], the maximum response (Emax) fell in the range of 60 to 80%. For the same molecule, the concentration for a half-maximal effect (EC50) under setting [1] was 500 to 1000 nM. In the case of `O=C(O)[C@H](Cc1ccccc1)Nc1nc(-c2cc(-c3ccon3)n(Cc3ccccc3F)n2)ncc1F` [Compound I-80], the maximal response (Emax) was 80 to 100%. For the same molecule, the half-maximal effective concentration (EC50) under setting [1] was in the range of 500 to 1000 nM. The matching figures for `OCC1C[C@H]2CC[C@@H](C1)N2c1nc(-c2cc(-c3ccon3)n(Cc3ccccc3F)n2)ncc1F` (some centres unmarked) [Compound I-82]: 60 to 80% and 100 to 500 nM. For the molecule `O=C(O)C1CN(c2nc(-c3cc(-c4ccon4)n(Cc4ccccc4F)n3)ncc2F)CCO1` (centres unmarked) [Compound I-83], the EC50 (top of curve fitted to 100%, read-out: HEK assay EC50 - constrained) is more than 10000 nM. Turning to `CC(C)[C@@H](Nc1nc(-c2cc(-c3ccon3)n(Cc3ccccc3F)n2)ncc1F)C(=O)O` [Compound I-86], the maximal response (Emax) fell in the range of 80 to 100%. Besides, the concentration for a half-maximal effect (EC50) under setting [1] lay within 100 to 500 nM. The like results for `O=C(O)[C@H]1Cc2ccccc2N1c1nc(-c2cc(-c3ccon3)n(Cc3ccccc3F)n2)ncc1F` [Compound I-91] were, in that order, 40 to 60% and 5000 to 10000 nM. The matching figures for `O=C(O)C1C2CCC(C2)N1c1nc(-c2cc(-c3ccon3)n(Cc3ccccc3F)n2)ncc1F` (centres unmarked) [Compound I-92]: 60 to 80% and 1000 to 5000 nM.

Regarding `O=C(O)C1(Nc2nc(-c3cc(-c4ccon4)n(Cc4ccccc4F)n3)ncc2F)CCC1` [Compound I-94], the maximal effect (Emax) fell in the range of 60 to 80%. Moreover, the concentration for a half-maximal effect (EC50) under setting [1] was 1000 to 5000 nM. The like results for `O=C(O)C1c2ccccc2CCN1c1nc(-c2cc(-c3ccon3)n(Cc3ccccc3F)n2)ncc1F` (centres unmarked) [Compound I-97] were, in that order, 60 to 80% and 1 to 100 nM. The like results for `Cc1noc(C2CCCCN2c2nc(-c3cc(-c4ccon4)n(Cc4ccccc4F)n3)ncc2F)n1` (centres unmarked) [Compound I-98] were, in that order, 40 to 60% and 1000 to 5000 nM. For the molecule `O=C(O)C(Nc1nc(-c2cc(-c3ccon3)n(Cc3ccccc3F)n2)ncc1F)C1COC1` (centres unmarked) [Compound I-102], the maximal effect (Emax) was 60 to 80%. Moreover, under setting [1], the EC50 is 1000 to 5000 nM. The matching figures for `CC(C)C[C@@H](Nc1nc(-c2cc(-c3ccon3)n(Cc3ccccc3F)n2)ncc1F)C(=O)O` [Compound I-103]: 80 to 100% and 1 to 100 nM.

Regarding `NC(=O)C1CCCCN1c1nc(-c2cc(-c3ccon3)n(Cc3ccccc3F)n2)ncc1F` (centres unmarked) [Compound I-105], the Emax was 40 to 60%. Further, the EC50 under setting [1] was in the range of 100 to 500 nM.

`O=C1CCCCCN1CCCNc1nc(-c2cc(-c3ccon3)n(Cc3ccccc3F)n2)ncc1F` [Compound I-109]: the Emax is 60 to 80%. Further, the half-maximal effective concentration (EC50) under setting [1] lay within 100 to 500 nM. The matching figures for `CC(C)(C)OC(=O)N1CCC(Nc2nc(-c3cc(-c4ccon4)n(Cc4ccccc4F)n3)ncc2F)(C(=O)O)CC1` [Compound I-110]: 20 to 40% and more than 10000 nM. For `O=C(O)[C@@H](CO)Nc1nc(-c2cc(-c3ccon3)n(Cc3ccccc3F)n2)ncc1F` [Compound I-112], the Emax was in the range of 20 to 40%. Besides, under setting [1], the EC50 is 1000 to 5000 nM.

Turning to `Fc1ccccc1Cn1nc(-c2ncc(F)c(N3CCn4cnnc4C3)n2)cc1-c1ccon1` [Compound I-113], the Emax is 60 to 80%. Moreover, the EC50 under setting [1] is 500 to 1000 nM. The matching figures for `CCOC(=O)c1nnc2n1CCN(c1nc(-c3cc(-c4ccon4)n(Cc4ccccc4F)n3)ncc1F)C2` [Compound I-115]: 40 to 60% and 1 to 100 nM. The like results for `O=C(O)[C@@H](Cc1ccccc1)Nc1nc(-c2cc(-c3ccon3)n(Cc3ccccc3F)n2)ncc1F` [Compound I-116] were, in that order, 60 to 80% and 100 to 500 nM. The matching figures for `O=C(O)[C@@H](Nc1nc(-c2cc(-c3ccon3)n(Cc3ccccc3F)n2)ncc1F)c1ccccc1` [Compound I-117]: 40 to 60% and 1000 to 5000 nM. With `O=C(O)[C@H](Nc1nc(-c2cc(-c3ccon3)n(Cc3ccccc3F)n2)ncc1F)c1ccccc1` [Compound I-118], the Emax was in the range of 80 to 100%. In addition, the concentration giving a half-maximal response (EC50) under setting [1] was 1000 to 5000 nM. The like results for `O=C(O)C1Cc2ccccc2CN1c1nc(-c2cc(-c3ccon3)n(Cc3ccccc3F)n2)ncc1F` (centres unmarked) [Compound I-119] were, in that order, 40 to 60% and 100 to 500 nM.

In the case of `O=C(O)[C@@H]1c2ccccc2CCN1c1nc(-c2cc(-c3ccon3)n(Cc3ccccc3F)n2)ncc1F` [Compound I-120], the Emax lay within 60 to 80%. The EC50 under setting [1] lay in the range of 100 to 500 nM. The like results for `N#CC1CCN(c2nc(-c3cc(-c4ccon4)n(Cc4ccccc4F)n3)ncc2F)CC1` [Compound I-123] were, in that order, 60 to 80% and 100 to 500 nM. The like results for `CS(=O)(=O)N1CCN(c2nc(-c3cc(-c4ccon4)n(Cc4ccccc4F)n3)ncc2F)CC1` [Compound I-125] were, in that order, 40 to 60% and 1 to 100 nM. The like results for `CC(C)C[C@@H](C(=O)O)N(C)c1nc(-c2cc(-c3ccon3)n(Cc3ccccc3F)n2)ncc1F` [Compound I-137] were, in that order, 80 to 100% and 100 to 500 nM. As for `CC(C)(C)OC(=O)NS(=O)(=O)N1CCN(c2nc(-c3cc(-c4ccon4)n(Cc4ccccc4F)n3)ncc2F)CC1` [Compound I-139], the maximum response (Emax) lay within 80 to 100%. Also, the EC50 under setting [1] fell in the range of 100 to 500 nM. The matching figures for `N#CCNc1nc(-c2cc(-c3ccon3)n(Cc3ccccc3F)n2)ncc1F` [Compound I-141]: 60 to 80% and 100 to 500 nM. For the molecule `O=C(NS(=O)(=O)C1CC1)C1CCCCN1c1nc(-c2cc(-c3ccon3)n(Cc3ccccc3F)n2)ncc1F` (centres unmarked) [Compound I-144], the Emax lay in the range of 80 to 100%. Moreover, under setting [1], the EC50 is 500 to 1000 nM.

In the case of `Fc1ccccc1Cn1nc(-c2ncc(F)c(N3CCC(c4nnn[nH]4)CC3)n2)cc1-c1ccon1` [Compound I-145], the maximum response (Emax) was 80 to 100%. Further, the 50% effective concentration (EC50) under setting [1] lay in the range of 1000 to 5000 nM. The like results for `Fc1ccccc1Cn1nc(-c2ncc(F)c(NCc3nn[nH]n3)n2)cc1-c1ccon1` [Compound I-146] were, in that order, 80 to 100% and 100 to 500 nM. The like results for `CC(C)(C)[C@@H](Nc1nc(-c2cc(-c3ccon3)n(Cc3ccccc3F)n2)ncc1F)C(=O)O` [Compound I-148] were, in that order, 80 to 100% and 100 to 500 nM. The like results for `Fc1ccccc1Cn1nc(-c2nc(Cl)c(F)c(N3CCOCC3)n2)cc1-c1ccon1` [Compound I-150] were, in that order, 40 to 60% and 100 to 500 nM. Turning to `CC(C)(C)[C@H](Nc1nc(-c2cc(-c3ccon3)n(Cc3ccccc3F)n2)ncc1F)C(=O)O` [Compound I-151], the Emax lay in the range of 60 to 80%. The EC50 under setting [1] lay within 500 to 1000 nM. The matching figures for `CC1(C)CN(c2nc(-c3cc(-c4ccon4)n(Cc4ccccc4F)n3)ncc2F)CC1C(=O)O` (centres unmarked) [Compound I-152]: 80 to 100% and 1 to 100 nM. In the case of `CN(c1ccccc1C(=O)O)c1nc(-c2cc(-c3ccon3)n(Cc3ccccc3F)n2)ncc1F` [Compound I-153], the maximal effect (Emax) was in the range of 60 to 80%. Besides, under setting [1], the EC50 lay within 100 to 500 nM. The like results for `O=C(O)C1CCCCC1Nc1nc(-c2cc(-c3ccon3)n(Cc3ccccc3F)n2)ncc1F` (centres unmarked) [Compound I-154] were, in that order, 60 to 80% and 100 to 500 nM.

On to `OC[C@H]1CCCN1c1nc(-c2cc(-c3ccon3)n(Cc3ccccc3F)n2)ncc1F` [Compound I-155], for which the maximum response (Emax) is 60 to 80%. Besides, the 50% effective concentration (EC50) under setting [1] lay within 100 to 500 nM. Consider `O=C(O)[C@H]1CCC[C@H]1Nc1nc(-c2cc(-c3ccon3)n(Cc3ccccc3F)n2)ncc1F` [Compound I-156], for which the maximum response (Emax) lay in the range of 80 to 100%. Besides, the concentration for a half-maximal effect (EC50) under setting [1] lay in the range of 100 to 500 nM. The like results for `CC(C)C[C@H](Nc1nc(-c2cc(-c3ccon3)n(Cc3ccccc3F)n2)ncc1F)C(=O)NS(=O)(=O)C1CC1` [Compound I-157] were, in that order, 60 to 80% and 100 to 500 nM. The like results for `CNS(=O)(=O)N1CCN(c2nc(-c3cc(-c4ccon4)n(Cc4ccccc4F)n3)ncc2F)CC1` [Compound I-158] were, in that order, 60 to 80% and 1 to 100 nM.

Usually Emax stands for the size of the effect at its maximum, as opposed to the concentration needed. For orientation: EC50 means the concentration at which the effect is half-maximal.
